{
  "source": "ChEMBL document CHEMBL4350974",
  "about": "“Synthesis and biological evaluation of methylpyrimidine-fused tricyclic diterpene analogs as novel oral anti-late-onset hypogonadism agents” (Eur J Med Chem, 2019)",
  "key": {"[1]": {"test_system": "Rattus norvegicus", "test": "Effect on sperm production in cyclophosphamide - induced Sprague-Dawley rat model of partial androgen deficiency assessed as increase in SYCP3 protein expression at 50 to 100 mg/kg by immunohistochemical analysis", "format": "functional, organism-based"}, "[2]": {"test": "Toxicity in cyclophosphamide - induced Sprague-Dawley rat model of partial androgen deficiency assessed as effect on Sertoli cells arrangement at 50 to 100 mg/kg by HE staining based histopathological analysis", "format": "organism-based", "settings": "in vivo"}, "[3]": {"test_system": "Rattus norvegicus", "test": "Anti late-onset hypogonadism activity in cyclophosphamide-induced Sprague-Dawley rat model of partial androgen deficiency assessed as increase in free testosterone level at 50 to 100 mg/kg, po qd administered for 4 weeks and measured every 2 weeks by ELISA", "format": "functional, organism-based"}, "[4]": {"test_system": "Rattus norvegicus", "test": "Anti late-onset hypogonadism activity in cyclophosphamide-induced Sprague-Dawley rat model of partial androgen deficiency assessed as weight of seminal vesicles at 100 mg/kg, po qd administered for 4 weeks (reference value: 1.33 +/- 0.26 g)", "format": "functional"}, "[5]": {"test_system": "Rattus norvegicus", "test": "Anti late-onset hypogonadism activity in cyclophosphamide-induced Sprague-Dawley rat model of partial androgen deficiency assessed as weight of seminal vesicles at 50 mg/kg, po qd administered for 4 weeks (reference value: 1.33 +/- 0.26 g)", "format": "functional"}, "[6]": {"test_system": "TM3", "test": "Induction of autophagy in mouse TM3 cells assessed as phosphorylation of AMPK at 10 to 100 uM by Western blot analysis", "format": "functional, cell-based"}, "[7]": {"test_system": "TM3", "test": "Induction of testosterone production in mouse TM3 cells assessed as increase in testosterone level at 20 uM measured after 24 hrs by ELISA relative to control", "format": "functional"}, "[8]": {"test": "Cytotoxicity against mouse TM3 cells assessed as reduction in cell viability measured after 24 hrs by sulforhodamine B assay", "format": "cell-based"}, "[9]": {"test": "Cytotoxicity against human NCM460 cells assessed as reduction in cell viability measured after 24 hrs by sulforhodamine B assay", "format": "cell-based"}, "[10]": {"test": "Cytotoxicity against human L02 cells assessed as reduction in cell viability measured after 24 hrs by sulforhodamine B assay", "format": "cell-based"}, "[11]": {"test_system": "TM3", "test": "Induction of testosterone production in mouse TM3 cells assessed as increase in 3beta-HSD mRNA expression level after 24 hrs by qRT-PCR analysis", "format": "functional, cell-based"}, "[12]": {"test": "Toxicity in cyclophosphamide - induced Sprague-Dawley rat model of partial androgen deficiency assessed as effect on heart at 50 to 100 mg/kg by HE staining based histopathological analysis", "format": "organism-based", "settings": "in vivo"}, "[13]": {"test": "Toxicity in cyclophosphamide - induced Sprague-Dawley rat model of partial androgen deficiency assessed as swelling of seminiferous tubules at 50 to 100 mg/kg by HE staining based histopathological analysis", "format": "organism-based", "settings": "in vivo"}, "[14]": {"test": "Toxicity in cyclophosphamide - induced Sprague-Dawley rat model of partial androgen deficiency assessed as sperm motility at 50 mg/kg by semen analysis (reference value: 88.3 +/- 7.3 %)", "format": "organism-based", "settings": "in vivo"}, "[15]": {"test": "Volume of distribution in Sprague-Dawley rat plasma at 50 mg/kg, po up to 12 hrs by LC/MS analysis", "format": "ADME, organism-based", "settings": "in vivo"}, "[16]": {"test": "Clearance in Sprague-Dawley rat at 50 mg/kg, po up to 12 hrs by LC/MS analysis", "format": "ADME, organism-based", "settings": "in vivo"}, "[17]": {"test": "Clearance in Sprague-Dawley rat at 5 mg/kg, iv up to 5 hrs by LC/MS analysis", "format": "ADME, organism-based", "settings": "in vivo"}, "[18]": {"test": "Mean residence time in Sprague-Dawley rat at 5 mg/kg, iv by LC/MS analysis", "format": "ADME, organism-based", "settings": "in vivo"}, "[19]": {"test_system": "TM3", "test": "Induction of autophagy in mouse TM3 cells assessed as increase in LC3 protein level at 10 to 100 uM after 24 hrs by DAPI staining based confocal microscopic method", "format": "functional, cell-based"}, "[20]": {"test_system": "TM3", "test": "Induction of testosterone production in mouse TM3 cells assessed as increase in StAR protein expression level after 24 hrs by Western blot analysis", "format": "functional, cell-based"}, "[21]": {"test_system": "TM3", "test": "Induction of testosterone production in mouse TM3 cells assessed as increase in 3beta-HSD protein expression level after 24 hrs by Western blot analysis", "format": "functional, cell-based"}},
  "note": "Activity calls are given as the source filed them. The rule behind the calls is not given here.",
  "data": [
    {"smiles": "CNC(=O)c1cc2c(cc1OC)[C@@]1(C)Cc3cnc(C)nc3C(C)(C)C1CC2", "note": "(mixture of isomers)", "values": [
      {"measurement": "Activity", "setting": "[1]", "value": "Active"},
      {"measurement": "Activity", "setting": "[2]", "value": "Toxic"},
      {"measurement": "Activity", "setting": "[3]", "value": "Active"},
      {"measurement": "Activity", "setting": "[4]", "value": 1.68, "unit": "g"},
      {"measurement": "Activity", "setting": "[5]", "value": 1.53, "unit": "g"},
      {"measurement": "Activity", "setting": "[6]", "value": "Active"},
      {"measurement": "Activity", "setting": "[7]", "value": 174.6, "unit": "%"},
      {"measurement": "CC50 at 24 h", "setting": "[8]", "value": "> 200", "unit": "µM"},
      {"measurement": "CC50 at 24 h", "setting": "[9]", "value": "> 200", "unit": "µM"},
      {"measurement": "CC50 at 24 h", "setting": "[10]", "value": "> 200", "unit": "µM"},
      {"measurement": "Activity", "setting": "[11]", "value": "Dose-dependent effect"},
      {"measurement": "Activity", "setting": "[12]", "value": "Non-Toxic"},
      {"measurement": "Activity", "setting": "[13]", "value": "Toxic"},
      {"measurement": "Activity", "setting": "[14]", "value": 92.6, "unit": "%"},
      {"measurement": "Vd", "setting": "[15]", "value": 106.27, "unit": "L/kg"},
      {"measurement": "CL/F", "setting": "[16]", "value": 270, "unit": "mL/min/kg"},
      {"measurement": "clearance", "setting": "[17]", "value": 155, "unit": "mL/min/kg"},
      {"measurement": "MRT", "setting": "[18]", "value": 9.92, "unit": "h"},
      {"measurement": "Activity", "setting": "[19]", "value": "Active"},
      {"measurement": "Activity", "setting": "[20]", "value": "Dose-dependent effect"},
      {"measurement": "Activity", "setting": "[21]", "value": "Dose-dependent effect"}
    ]}
  ]
}
